Laboratory results reported in paper PMC6511062, “Preclinical candidate for the treatment of visceral leishmaniasis that acts through proteasome inhibition” (Proceedings of the National Academy of Sciences of the …, 2019).

Key:
bloodstream T. brucei = test: T. brucei stem-loop RNAi knock-down lines, drug sensitivity; format: cell-based, Trypanosoma brucei; settings: for EC50: Trypanosoma brucei
Procedure: f. T. brucei RNAi constructs and cell lines
PCR primers (Table S6) were designed using RNAit28 to generate a 500-bp fragment conferring specific knockdown to Tb927.8.6620 (Table S7) and a 543-bp fragment of Tb927.9.15260 PCR fragments were cloned in the pRPaSLi construct for the generation of stem-loop dsRNA under the control of tetracycline as the trigger for RNAi28,29. Constructs were digested with AscI, EtOH-precipitated, and resuspended ([…]) in sterile water. 2T1 strains, containing a tetracycline repressor, were electroporated using program X-001 of the Nucleofector II electroporator (Amaxa, Cologne, Germany)30 following the addition of 5 µg of linearized DNA mixed in 100 µL of cytomix31. Transformants were cloned by limiting dilution under phleomycin (1 µg/mL) and hygromycin (2.5 µg/mL) selection. Puromycin susceptibility (1 µg/mL) was tested for full integration of the construct and expression of stem-loop RNAi was induced with concentrations of tetracycline ranging from […].
T. brucei RNA was isolated using an RNeasy purification kit (Qiagen) and cDNA-synthesized using a high capacity RNA-to-cDNA kit (Applied Biosystems). PCR primers (Table S6) were designed using the Premierbiosoft's Beacon Designer 6. qRT-PCRs […]
knock-down bloodstream trypanosomes. Transcript levels in trypanosomes where RNAi was induced by the addition of tetracycline (1 µg/mL, 24 h) were compared to wild-type (uninduced) levels. Relative levels of cDNA were normalized using the reference gene TERT (Tb927.11.10190, telomerase reverse transcriptase).
Compound 7, nM Compound 7, nM
Figure S4. Dose-response curves for compound 7 against cell lines where […]
(open circles) and induced (closed circles), respectively. […]
and 8.7 ± 0.3 nM for Tb927.8.6620RNAi uninduced (open circles) and induced (closed circles), respectively. Results are the means standard deviations of data from three […]

[1] = system: L. donovani axenic amastigotes; test: L. donovani axenic amastigote drug sensitivity; format: cell-based; settings: Leishmania donovani, concentration stated as 1X IC50, read-out: whole cell IC50
Procedure: T. cruzi4, Leishmania donovani axenic amastigote, cidal axenic amastigote and intra-macrophage drug sensitivity assays were conducted as previously described5,6.
The rate of kill of compound 8 was determined in axenic amastigotes using the previously described cidal axenic assay5, with one minor modification. Instead of a single readout at 72 h, multiple identical plates were used and read at different time points (24, 48, 72 h). Rate of kill curves showing the luminescence signal at each time point for each concentration were plotted.
5. Intrinsic clearance (CLint) […]
XLfit (idbs, UK) was used to calculate the exponential decay and consequently the rate constant (k) from the ratio of peak area of test compound to internal standard at each time-point. The rate of intrinsic clearance (CLint) of each test compound was then calculated using the following calculation: […]
Compounds were dispensed into black 384-well assay plates (Greiner) by acoustic dispensing (LabCyte ECHO). […] Three proteasome activities were measured using a commercially available indirect enzyme-based luminescent assay kit (Promega) with Suc-LLVY-aminoluciferin, Z-LRR-aminoluciferin and Z-nLPnLD-aminoluciferin used as substrates for chymotrypsin-like, trypsin-like and caspase-like activities, respectively. […]

WP2 uvrA (pKM101) = test: Ames test, strain WP2 uvrA (pKM101)
Procedure: oxidative metabolism system (S9-mix). The maximum concentration tested and […]
Compound 7a was tested in a bacterial mutation screening assay (Ames test) with Salmonella typhimurium TA1535, TA1537, TA98, TA100 and Escherichia coli WP2uvrA(pKM101) in the presence and absence of an exogenous mammalian […]
The bacterial mutation screening assay was a plate incorporation test carried out as previously described15 and according to current methodology. […]

SMILES | EC50 (bloodstream T. brucei; Tb927.8.6620 RNAi induced) [nM] | EC50 (bloodstream T. brucei; Tb927.8.6620 RNAi uninduced) [nM] | EC50 (bloodstream T. brucei; Tb927.9.15260 RNAi induced) [nM] | EC50 (bloodstream T. brucei; Tb927.9.15260 RNAi uninduced) [nM] | resistance conferred by RNAi knockdown (bloodstream T. brucei; knockdown of Tb927.9.15260 and Tb927.8.6620) | IC50 [1] [nM] | Mean revertants per plate (WP2 uvrA (pKM101); with S9-mix, dose level 50 per plate) | Mean revertants per plate (WP2 uvrA (pKM101); with S9-mix, dose level 150 per plate) | Mean revertants per plate (WP2 uvrA (pKM101); with S9-mix, dose level 500 per plate) | Mean revertants per plate (WP2 uvrA (pKM101); with S9-mix, dose level 1500 per plate) | Mean revertants per plate (WP2 uvrA (pKM101); with S9-mix, dose level 2500 per plate) | Mean revertants per plate (WP2 uvrA (pKM101); with S9-mix, dose level 5000 per plate) | Mean revertants per plate (WP2 uvrA (pKM101); without S9-mix, dose level 50 per plate) | Mean revertants per plate (WP2 uvrA (pKM101); without S9-mix, dose level 150 per plate) | Mean revertants per plate (WP2 uvrA (pKM101); without S9-mix, dose level 500 per plate) | Mean revertants per plate (WP2 uvrA (pKM101); without S9-mix, dose level 1500 per plate) | Mean revertants per plate (WP2 uvrA (pKM101); without S9-mix, dose level 2500 per plate) | Mean revertants per plate (WP2 uvrA (pKM101); without S9-mix, dose level 5000 per plate)
O=C(Nc1ccc(F)c(-c2cn3nc(-c4ccccc4)cnc3n2)c1)N1CCCC1 [Compound 7] | 8.7 ± 0.3 | 4.2 ± 0.2 | 8 ± 0.4 | 4.1 ± 0.2 | approximately twofold | – | – | – | – | – | – | – | – | – | – | – | – | –
O=C(Nc1ccc(F)c(-c2ccn3c(N4CCOCC4)cnc3n2)c1)N1CCCC1 [Compound 8] | – | – | – | – | – | 300 | 150.5 | 164.5 | 143.5 | 139.0 | 130.5 | 133.5 | 90.0 | 84.5 | 80.5 | 87.5 | 91.5 | 82.0
